PMC4010227 (Journal of computer-aided molecular design, 2010)

Target: F508del-CFTR (Homo sapiens, UniProt P13569, DEL508-508)
Experiment: Ussing chamber short-circuit current, acute cumulative dose response
Assay type: cell-based

## EPX-108380
  EC50: < 1 µM
